Data on one compound can be found in paper PMC4536998 (Oncotarget, 2015).

In the assay the target is T1, embryonic ectoderm development (EED) (Homo sapiens, UniProt O75530).
T1 construct: recombinant EED
Put plainly: SPR (Biacore […], EED immobilized on CM5 chip, […] Langmuir fit); supported by competitive co-IP against EZH2. In kind it is binding. A general note: SPR reads the build-up and loss of mass on a sensor chip optically.

By Kd is commonly meant the constant that tells how readily two partners part at equilibrium.

T1 sequence (O75530 2-441): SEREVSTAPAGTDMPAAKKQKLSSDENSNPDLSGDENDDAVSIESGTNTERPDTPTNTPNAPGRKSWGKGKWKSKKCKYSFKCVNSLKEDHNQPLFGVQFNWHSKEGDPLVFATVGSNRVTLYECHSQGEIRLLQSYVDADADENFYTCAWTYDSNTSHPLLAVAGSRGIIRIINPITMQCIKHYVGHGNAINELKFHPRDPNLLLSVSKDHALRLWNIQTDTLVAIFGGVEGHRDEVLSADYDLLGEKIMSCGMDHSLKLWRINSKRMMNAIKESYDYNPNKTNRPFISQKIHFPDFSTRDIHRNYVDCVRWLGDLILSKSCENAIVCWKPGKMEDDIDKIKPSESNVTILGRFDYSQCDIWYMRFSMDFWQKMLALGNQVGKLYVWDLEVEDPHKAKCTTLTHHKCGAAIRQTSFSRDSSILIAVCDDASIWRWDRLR

In the case of `O=C(O[C@@H]1Cc2c(O)cc(O)cc2O[C@@H]1c1cc(O)c(O)c(O)c1)c1cc(O)c(O)c(O)c1` [1E7, EGCG], binding was characterised by a dissociation constant (Kd) of 15.1 µM.
